We go through 15 molecules from patent US8586707B2, “Stapled peptides and method of synthesis” (The Research Foundation of State University of New York, priority 2008, dated 2013).

Data set [1] can be described thus: Far-UV circular dichroism, percent helicity. The class given is physicochemical. The note with it: CD in trifluoroethanol at 25 °C, from mean residue ellipticity at 208 nm. On the procedure: (§1) To examine the stapling effect on peptide secondary structure, we measured the far-UV circular dichroism (CD) spectra of the stapled peptides in trifluoroethanol (TFE) at 25° C. Because the tetrazoles in the linear peptides are labile to the CD scanning light (short wavelength UV light), we prepared a photo stable control peptide, Ac-Val-Lys(Ac)-Leu-Aib-Val-Lys(Ac)-Leu-NH2 (SEQ ID NO:1) (17; Ac=acetyl; Aib=amino isobutyric acid) as a linear surrogate. […] The percent helicity of 17 was determined to be 53% on the basis of mean residue ellipticity (MRE) at 208 nm. […] To further characterize the stability derived from the stapling, we measured thermal melting point (Tm) of the most helical peptide 16 by following its ellipticity over a wide temperature range (20-85° C.), and compared it to that of the linear photo stable peptide 17 (FIG. 5 (b)).
Circular Dichroism: CD spectra were obtained using 1-mm pathlength cuvettes on a JASCO J-715 instrument at 25° C. The instrument scan range was set at 190 to 250 nm. The scan rate was set at 50 nm/min, the response time was set at 2 sec, and the bandwidth was set at 1 nm. The spectra were the averages of two scans. For the measurement of percent helicity, peptides were dissolved in 100% trifluoroethanol (TFE); for the Tm determination, 20% TFE/H2O were used as the solvent. The percent helicity was calculated by using the following equation: […]

For another data set, the system named is HeLa cells. The experiment in a line: Cellular uptake study by fluorescent microscopy. The format is cell-based. The note with it: 100 μM peptide, 4 hours, 37 °C, DAPI filter. As for the experimental part:
To assess whether the stapled peptides are capable of penetrating cell membrane, we took advantage of the intrinsic fluorescence of the pyrazoline cross-linkers and monitored the stapled peptide cellular uptake by fluorescent microscopy. […] After incubating HeLa cells with 100 μM of peptide 13 for 4 hours in a 37° C. CO2 incubator, the cells were washed twice with PBS before fixing with 4% paraformaldehyde and the subcellular distribution of peptide 13 was examined by fluorescent microscopy.
Cellular Uptake Study: HeLa cells cultured on cover slips were treated with 100 μM of peptide 13 or control peptide 18 in 2% DMSO serum-free DMEM medium for 4 hr in a 37° C., 5% CO2 incubator. In preparation for fixation, medium was aspirated and the cells were washed twice with PBS. The cover slips were treated to a freshly prepared 4% paraformaldehyde/PBS solution for 10˜15 min, washed twice with PBS, and quenched with 50 mM NH4Cl for 10 minutes. After washing with PBS twice, the cover-slip was flipped and placed on top of microscopy glass containing in situ-frame and PBS buffer to make a sealed sample chamber. The images were acquired on a Zeiss Axioimager motorized fluorescence microscope. DAPI filter (ex 365 nm, em 445±25 nm) was used in acquiring fluorescence images. All image acquisitions and processing were performed under identical conditions.

For data set [2] the following is noted: the molecule shown is the open-chain precursor, other bond, hv 302 nm (tetrazole-alkene photocycloaddition).
The nature of data set [3]: Thermal melting point by CD ellipticity over 20-85 °C. The class given is physicochemical. The note with it: for melting temperature (Tm): 100 μM peptide in 20% TFE/H2O, 20-85 °C. As for the experimental part: as §1
Circular Dichroism: CD spectra were obtained using 1-mm pathlength cuvettes on a JASCO J-715 instrument at 25° C. The instrument scan range was set at 190 to 250 nm. The scan rate was set at 50 nm/min, the response time was set at 2 sec, and the bandwidth was set at 1 nm. The spectra were the averages of two scans. For the measurement of percent helicity, peptides were dissolved in 100% trifluoroethanol (TFE); for the Tm determination, 20% TFE/H2O were used as the solvent. The percent helicity was calculated by using the following equation:
[formula] The melting temperature (Tm) was determined by following a reported procedure. Briefly, a sample of 100 μM peptide in 20% TFE/H2O in an 1-mm pathlength cuvette was scanned at various temperatures from 20° C. to 85° C. (5-degree intervals) with an equilibration time of 3 min and a heating rate of 60° C./hr. The θ222 MRE data was normalized by setting the maximum θ222 MRE to 100% and the minimum θ222 MRE to 0.

The conditions of data set [4]: the molecule shown is the open-chain precursor, other bond, 28-membered ring, hv 302 nm, 10 min, 0.15 mM.
The mark [5] stands for this setting: 28-membered ring, MeCN, 0.15 mM.

Like-named read-outs stand apart in the source and are kept apart here. *1 amine or outer side, *2 acyl side, *3 side chain or, on linkers, in order; H or OH if unused. Where a SMILES comes first, the peptide text is derived from it. Bridges are numbered along the chain shown (N, C = ends). [ ]: non-standard residue; d: D form. The star is where a group is joined. X1 = CN(C)c1ccc(N2N=C(C(=O)[*:2])CC2(C)C(=O)[*:1])cc1; X5 = COc1ccc(N2N=C(C(=O)[*:2])CC2(C)C(=O)[*:1])cc1; X3 = COc1ccc(N2N=C(C(=O)[*:2])CC2C(=O)[*:1])cc1; X4 = CC1(C(=O)[*:1])CC(C(=O)[*:2])=NN1c1ccccc1; X2 = COc1ccc(N2N=C(C(=O)*)CC2C(N)=O)cc1; Aib = CC(C)(N)C(=O)O

With `COc1ccc(N2N=C3CC2(C)C(=O)NCCCC[C@H](NC(=O)[C@@H](NC(C)=O)C(C)C)C(=O)N[C@@H](CC(C)C)C(=O)NC(C)(C)C(=O)N[C@@H](C(C)C)C(=O)N[C@H](C(=O)N[C@@H](CC(C)C)C(N)=O)CCCCNC3=O)cc1` (some centres unmarked) [Peptide 14] (Ac-VKL[Aib]VKL-NH2; linker 2-6 via X5), the percent helicity in data set [1] was determined as 51%.
Turning to `COc1ccc(N2N=C(C(=O)NCCCC[C@H](NC(=O)[C@@H](NC(=O)C(C)(C)NC(=O)[C@H](CC(C)C)NC(=O)[C@H](CCCCNC(C)=O)NC(=O)[C@@H](NC(C)=O)C(C)C)C(C)C)C(=O)N[C@@H](CC(C)C)C(N)=O)CC2C(N)=O)cc1` (stereo partly drawn) [Peptide 18, Ac-Val-Lys(Pyr)-Leu-Aib-Val-Lys(Ac)-Leu-NH2, reference compound] (Ac-VK(Ac)L[Aib]VK(X2)L-NH2), in the data set with HeLa cells, the “cellular uptake (intracellular fluorescence)” value was “did not yield cellular fluorescent pattern”.
As to “Ac-Val-Lys(methacryloyl)-Leu-Aib-Val-Lys(2-(4-methoxyphenyl)-2H-tetrazole-5-carbonyl)-Leu-NH2?”, the ring closure, yield after HPLC in data set [2] (setting [5]) amounted to 53%.
The same measure, in the same setting: with “Ac-Val-Lys(acryloyl)-Leu-Aib-Val-Lys(2-(4-dimethylaminophenyl)-2H-tetrazole-5-carbonyl)-Leu-NH2?” the figure was 64%.
For `CC(=O)N[C@H](C(=O)N[C@H]1CCCCNC(=O)C2(C)CC(=NN2c2ccc(N(C)C)cc2)C(=O)NCCCC[C@@H](C(=O)N[C@@H](CC(C)C)C(N)=O)NC(=O)[C@H](C(C)C)NC(=O)C(C)(C)NC(=O)[C@H](CC(C)C)NC1=O)C(C)C` (some centres unmarked) [Peptide 16] (Ac-VKL[Aib]VKL-NH2; linker 2-6 via X1), in data set [3], the “melting temperature (Tm)” value was determined as 63 °C. Also, the “increase in Tm versus linear peptide 17” value in data set [3] (stapled 16 vs linear 17) was found to be 15 °C. Further, the percent helicity in data set [1] turned out to be 64%.
Molecule “Ac-Val-Lys(acryloyl)-Leu-Aib-Val-Lys(2-(4-methoxyphenyl)-2H-tetrazole-5-carbonyl)-Leu-NH2?” returned a ring closure, yield after HPLC in data set [2] (setting [5]) of 64%.
For “Ac-Val-Lys(methacryloyl)-Leu-Aib-Val-Lys(2-(4-dimethylaminophenyl)-2H-tetrazole-5-carbonyl)-Leu-NH2?”, the ring closure, yield after HPLC in data set [2] (setting [5]) came to 94%. The ring closure, conversion in data set [4] (DCM) is 43%; in data set [4] (EtOAc) it was 86%; in data set [4] (EtOH), 92%; in data set [4] (MeCN), 87%; in data set [4] (iPrOH) it was 88%.
Turning to `CC(=O)NCCCC[C@H](NC(=O)[C@@H](NC(C)=O)C(C)C)C(=O)N[C@@H](CC(C)C)C(=O)NC(C)(C)C(=O)N[C@H](C(=O)N[C@@H](CCCCNC(C)=O)C(=O)N[C@@H](CC(C)C)C(N)=O)C(C)C` [Peptide 17, Ac-Val-Lys(Ac)-Leu-Aib-Val-Lys(Ac)-Leu-NH2, reference compound] (Ac-VK(Ac)L[Aib]VK(Ac)L-NH2), in data set [3], the “melting temperature (Tm)” value was 48 °C. In data set [1], this molecule gave a percent helicity of 53%.
“Ac-Val-Orn(methacryloyl)-Leu-Aib-Val-Orn(4-(2-phenyl-2H-tetrazol-5-yl)benzoyl)-Leu-NH2?” yielded a ring closure, yield after HPLC in data set [2] (30-membered ring, MeCN, 0.15 mM) of 15%.
On to “Ac-Leu-Thr-Phe-Lys(methacryloyl)-His-Tyr-Trp-Ala-Gln-Leu-Lys(N-(4-methoxy)phenyl-tetrazole)-Ser-NH2”, for which the ring closure, yield after HPLC in data set [2] was determined as 74%.
Molecule “Ac-Val-Lys(methacryloyl)-Leu-Aib-Val-Lys(4-(2-phenyl-2H-tetrazol-5-yl)benzoyl)-Leu-NH2?” came in with a ring closure, yield after HPLC in data set [2] (32-membered ring, MeCN, 0.15 mM) of 38%.
`COc1ccc(N2N=C3CC2C(=O)NCCCC[C@H](NC(=O)[C@@H](NC(C)=O)C(C)C)C(=O)N[C@@H](CC(C)C)C(=O)NC(C)(C)C(=O)N[C@@H](C(C)C)C(=O)N[C@H](C(=O)N[C@@H](CC(C)C)C(N)=O)CCCCNC3=O)cc1` (some centres unmarked) [Peptide 13] (Ac-VKL[Aib]VKL-NH2; linker 2-6 via X3): the “cellular uptake (intracellular fluorescence)” value in the data set on HeLa cells is reported as “punctuated fluorescence was observed in discrete cytoplasmic regions within HeLa cells”.
Turning to “Ac-Val-Orn(methacryloyl)-Leu-Aib-Val-Orn(2-phenyl-2H-tetrazole-5-carbonyl)-Leu-NH2?”, the ring closure, yield after HPLC in data set [2] (26-membered ring, MeCN, 0.15 mM) worked out at 15%.
In data set [2] (setting [5]), “Ac-Val-Lys(methacryloyl)-Leu-Aib-Val-Lys(2-phenyl-2H-tetrazole-5-carbonyl)-Leu-NH2?” showed a ring closure, yield after HPLC of 41%.
Turning to `CC(=O)N[C@H](C(=O)N[C@H]1CCCCNC(=O)C2(C)CC(=NN2c2ccccc2)C(=O)NCCCC[C@@H](C(=O)N[C@@H](CC(C)C)C(N)=O)NC(=O)[C@H](C(C)C)NC(=O)C(C)(C)NC(=O)[C@H](CC(C)C)NC1=O)C(C)C` (some centres unmarked) [Peptide 11] (Ac-VKL[Aib]VKL-NH2; linker 2-6 via X4), the percent helicity in data set [1] is 51%.
